Test results published in patent US10292992B2, “Selective high-affinity polydentate ligands and methods of making such” (LAWRENCE LIVERMORE NATIONAL SECURITY, LLC, priority 2008, dated 2019).
Where two headings read alike, the source gives them in different places.

Legend:
[1] = tested on: Raji xenografts; assay: Electron microscopy of Raji xenografts after SHAL treatment; type: in vivo, mice; details: after 100 ng of biotinylated SHAL
Method: Raji xenografts (53-132 mm^3) were harvested for EM from mice, untreated (control) and 2, 4 or 24 h after 100 ng of biotinylated SHAL.

[2] = tested on: Jurkat's xenografts; assay: Efficacy in mice with Jurkat's xenografts; type: in vivo, athymic Balb/c nu/nu mice
Source text: Seven- to nine-week old female, athymic Balb/c nu/nu mice (Harlan Sprague Dawley, Inc., Frederick, Md.) were maintained according to University of California animal care guidelines under pathogen-free conditions and on a normal ad libitum diet. Raji or Jurkat's cells harvested in log phase and having >95% viability were implanted (6×10^6 cells) subcutaneously in the lower abdomen 3-4 days after the mice were irradiated (400 cGy) to suppress xenograft rejection. When xenografts reached 20-500 mm3 by caliper measurement, the mice were sorted by xenograft volume into 4 groups: SHAL-treated mice with Raji xenografts, SHAL-treated mice with Jurkat's xenografts, untreated mice with Raji xenografts or untreated mice with Jurkat's xenografts. Each mouse was injected with 100 μl of PBS or 100 ng DOTA-chelated tridentate SHAL i.p. on days 0, 7 and 14. Xenograft volume and survival were monitored for ≥84 days. The mice were also weighed 2-3 times each week for 4 weeks then weekly. Blood counts were measured prior to each SHAL or PBS dose and weekly for 4 weeks after the final dose using a Z Series Coulter Counter (Beckman Coulter Inc., Hialeah, Fla.) and a phase contrast microscope (Zeiss, Jena, Germany).
Xenograft volumes were calculated by the formula for hemiellipsoids (DeNardo et al. (1997) Clin. Cancer Res. 3: 71-79). […] If a xenograft became >2000 mm3, the mouse was euthanized in accordance with University of California animal care guidelines and scored as a disease-related death.
Initial analysis compared response rates by exact tests and survival times by log-rank tests for untreated Raji and Jurkat's mice and found no significant differences, so these groups were pooled for subsequent analysis. Response rates for treated Raji, treated Jurkat's and untreated mice were compared by x^2 and exact tests. Survival times were censored at 84 days for mice who had not died or been euthanized because of tumor growth before that time. Times were summarized descriptively by Kaplan-Meier curves and median survival and 95% confidence limits were obtained by the product-limit estimate. The two treated groups were compared to the untreated using a log-rank test for homogeneity across groups, followed by a proportional hazards model to estimate the effect of treatment compared to no treatment. Analyses were carried out using SAS/SAT® software (SAS Institute, Inc. SAS/STAT Version 9.0. 2004. Cary, N.C.: SAS Institute). All tests were two-sided at level 0.05.

[3] = tested on: Raji human HLA-DR10 expressing lymphoma cells; assay: Cytotoxicity assay (trypan blue) in Raji cell culture; type: cell-based
Method: Raji cells harvested in log growth phase were centrifuged, resuspended in fresh media and counted in 10% trypan-blue dye to determine initial and subsequent viability, as previously described (West et al. (2006) Cancer Biother. Radiopharm., 21: 645-654). When untreated, cells continued to multiply and nonviable cells, initially <5% of total cells, remained so over the course of the assays. To titrate cytotoxic activity, biotinylated tridentate SHAL at concentrations ranging between 0 and 7 nM (pm/ml media) was incubated with 0.5×10^6 cells/ml at 37° C. in a 5% CO2, humidified atmosphere (NAPCO, Portland, Oreg.). After 1, 2 and 3 days, cells were resuspended in trypan blue dye and counted in a hemocytometer. The fractional viability and absolute number of viable and non-viable cells/ml were determined.

[4] = 100 ng DOTA-chelated tridentate SHAL i.p. days 0, 7 and 14

`CC(C)C(NS(=O)(=O)c1ccc(N=Nc2ccc(N(C)C)cc2)cc1)C(=O)NCCOCCOCC(=O)NC(CCCCNC(=O)C(CCCCNC(=O)CC(=O)Nc1ccccc1Oc1ncc(C(F)(F)F)cc1Cl)NC(=O)COCCOCCNC(=O)c1ccc(N2CCN(Cc3ccc(Cl)cc3)CC2)c([N+](=O)[O-])c1)C(=O)NCCOCCOCC(=O)NC(CCCCNC(=O)CN1CCN(CC(=O)O)CCN(CC(=O)O)CCN(CC(=O)O)CC1)C(=O)O` (centres unmarked) [tridentate SHAL] was tested, and the “electron microscopy findings in xenograft cells” value [1] was “highly condensed nuclear chromatin and fragmented organelles”, the “electron microscopy findings in xenograft cells” value ([1]; listed as SHAL) was “condensed and fragmented chromatin and loss of cytoplasmic structures consistent with autophagic death” and the Cure [2, 4] was 0%. For the same molecule, the “ORR (overall response rate)” value [2, 4] was 0%, the “longest survival (FIG. 31)” value ([2]; 100 ng SHAL i.p. once weekly for 3 consecutive weeks) was ≤ 56 days and the “effect of SHAL treatment on Jurkat's xenografts” value ([2]; mouse, in vivo) was “not affected”. For the same molecule, the median survival time ([2]; treated mice with Jurkat's xenografts) was 21 days, the “threshold concentration for cytotoxic activity” value ([3]; Raji cell culture) was 0.7 nM and the IC50 ([3]; Raji cell culture, read-out: IC50 concentration for cytotoxic activity) was 2.5 nM. For the same molecule, the “threshold SHAL cytotoxic concentration” value ([3]; biotinylated tridentate SHAL, determined at 2 days) was 0.7 nM (pm/ml media) and the IC50 ([3]; biotinylated tridentate SHAL, determined at 2 days, read-out: IC50 SHAL cytotoxic concentration) was 2.5 nM.
